The IC50 is the midpoint of a concentration-inhibition curve. The term inhibition denotes the percentage by which the read-out fell short of the control. By bioavailability is commonly meant dose-corrected exposure relative to a reference, in per cent. Low values mean little systemic uptake, high ones much systemic uptake. For orientation: ED50 means the dose at which the effect has come halfway, by size or by number of responders. By EC50 is commonly meant the concentration that produces a half-maximal response.

Counter-ions that a name gives are not always drawn. Like-named read-outs stand apart in the source and are kept apart here.

For data set [1], the target named is T1, recombinant human ETAR (HETA) (Homo sapiens, UniProt P25101).
T1 construct: expressed in transfected cells; host or cells: Ltk- cells (membrane preparation)
T1 sequence (P25101 21-427): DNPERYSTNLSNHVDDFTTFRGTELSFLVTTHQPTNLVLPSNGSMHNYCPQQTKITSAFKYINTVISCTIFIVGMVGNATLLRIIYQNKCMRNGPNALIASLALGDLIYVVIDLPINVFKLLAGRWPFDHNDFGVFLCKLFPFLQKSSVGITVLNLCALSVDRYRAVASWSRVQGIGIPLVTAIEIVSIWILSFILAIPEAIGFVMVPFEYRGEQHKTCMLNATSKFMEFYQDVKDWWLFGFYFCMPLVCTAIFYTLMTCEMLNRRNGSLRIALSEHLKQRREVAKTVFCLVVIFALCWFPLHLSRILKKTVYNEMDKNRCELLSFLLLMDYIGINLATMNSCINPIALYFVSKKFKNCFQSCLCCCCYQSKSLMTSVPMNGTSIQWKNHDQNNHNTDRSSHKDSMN
The data set is described as follows: Radioligand binding, [125I]ET-1 to membranes of Ltk- cells expressing recombinant human ETAR (HETA). As to the method: (§1) The following cultured cells were used in binding experiments: Ltk-cells expressing recombinant human ETAR (HETA), and CHOKI cells expressing recombinant human ETBR (HETB).
(§2) Membranes were prepared from cultured cells by lysing cells in cold lysis buffer (5 mM HEPES, 2 mM EDTA, pH 7.4) and homogenizing with a Dounce “A” homogenizer. The homogenate was centrifuged at 30,000×g for 20 minutes at […]. Membrane pellets were suspended in cold buffer containing 20 mM Tris, 2 mM EDTA, 200 μM Pefabloc, 10 μM phosphoramidon, 10 μM leupeptin, 1 μM pepstatin at pH 7.4 and frozen at […] until use. Membranes were thawed and homogenized with a Brinkmann Polytron then diluted in tissue buffer containing 20 mM Tris, 2 mM EDTA, 200 μM Pefabloc, and 100 μM bacitracin (pH 7.4). Radioligand and competing ligands were prepared in binding buffer containing 20 mM Tris, 2 mM EDTA, and 0.1% BSA.
(§3) The assay was terminated by filtration over Whatman GF/B filters which were presoaked with 50 mM Tris, pH 7.4 containing 0.2% BSA and 100 μM bacitracin. Nonspecific binding was defined as binding in the presence of 100 nM ET-1.

The subject of data set [2] is ETA, rabbit femoral artery. The data set is described as follows: Antagonism of ET-1 stimulated vasoconstriction (VERAA) in the rabbit femoral artery (ETA). The settings on record: for VERAA (pA2): ET-1 stimulated vasoconstriction, rabbit femoral artery. The source says:
In Vitro Antagonism of ET-1 Stimulated Vasoconstriction (VERAA) in the Rabbit Femoral Arterv (ETA) and Sarafotoxin 6C Stimulated Vasoconstriction in the Rabbit Pulmonarv Artery (ETB)
Male New Zealand rabbits were killed by cervical dislocation and exsanguination. Femoral and pulmonary arteries were isolated, cleaned of connective tissue, and cut into 4mm rings. The endothelium was denuded by placing the rings over hypodermic tubing (32 gauge for femoral rings and 28 gauge for pulmonary rings, Small Parts, Inc., Miami, Fla.) and gently rolling them. Denuded rings were mounted in 20 mL organ baths containing Krebsbicarbonate buffer (composition in mM: NaCl, 118.2; NaHCO3, 24.8; KCl, 4.6; MgSO4 7H2O, 1.2; KH2PO4, 1.2; CaCl2 2H2O; CaNa2 EDTA, 0.026;, dextrose, 10.0), that was maintained at 37° C. and gassed continuously with 5% CO2 in oxygen (pH 7.4). Resting tension was adjusted to 3.0 g for femoral and 4.0 g pulmonary arteries; the rings were left for 90 minutes to equilibrate. Vascular rings were tested for lack of functional endothelium (ie, lack of an endotheliumdependent relaxation response to carbachol ([…]) in norepinephrine ([…]) contracted rings. Agonist peptides, ET-1 -(femoral), and S6c (pulmonary), were cumulatively added at 10-minute intervals. The ET antagonists were added 30 minutes prior to adding the agonist.

Data set [3] has as its target T2, recombinant human ETBR (HETB) (Homo sapiens, UniProt P24530).
T2 construct: expressed in transfected cells; host or cells: CHOKI (CHO-K1) cells (membrane preparation)
T2 sequence (P24530 27-442): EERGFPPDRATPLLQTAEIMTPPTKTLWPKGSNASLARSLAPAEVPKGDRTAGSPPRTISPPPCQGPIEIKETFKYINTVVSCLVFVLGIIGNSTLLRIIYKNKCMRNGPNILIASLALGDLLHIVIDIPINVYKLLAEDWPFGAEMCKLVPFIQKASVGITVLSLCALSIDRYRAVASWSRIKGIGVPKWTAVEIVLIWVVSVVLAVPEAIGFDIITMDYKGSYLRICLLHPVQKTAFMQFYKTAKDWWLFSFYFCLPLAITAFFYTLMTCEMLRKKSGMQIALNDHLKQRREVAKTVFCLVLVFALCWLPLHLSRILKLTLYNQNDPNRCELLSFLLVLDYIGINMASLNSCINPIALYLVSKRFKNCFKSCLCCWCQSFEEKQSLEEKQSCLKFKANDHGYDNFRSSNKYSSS
Nature of the data set: Radioligand binding, [125I]ET-1 to membranes of CHOKI cells expressing recombinant human ETBR (HETB). The settings on record: [125I]ET-1 binding, human ETB, CHOKI cell membranes. As to the method: as §1, §2, §3

Data set [4] deals with ETA, cultured rabbit renal artery vascular smooth muscle cells. Nature of the data set: Inhibition of ET-1 stimulated arachidonic acid release (AAR) in cultured rabbit vascular smooth muscle cells (ETA). In kind it is cell-based. As to the method:
In Vitro Inhibition of ET-1 Stimulated Arachidonic Acid Release (AAR) in Cultured Rabbit Vascular Smooth Muscle Cells (ETA) by the Compounds of the Invention
Antagonist activity is measured by the ability of added compounds to reduce endothelinstimulated arachidonic acid release in cultured vascular smooth muscle cells. [^3H]Arachidonic Acid Loading Media (LM) is DME/F12+0.5% FCS×0.25 mCi/mL [^3H]arachidonic acid (Amersham). Confluent monolayers of cultured rabbit renal artery vascular smooth muscle cells were incubated in 0.5 mL of the LM over 18 hours, at 37° C., in 5% CO2. The LM was aspirated and the cells were washed once with the assay buffer (Hank's BSS +10 mM HEPES +fatty acidfree BSA (1 mg/mL)), and incubated for 5 minutes with 1 mL of the prewarmed assay buffer. This solution was aspirated, followed by an additional 1 mL of prewarmed assay buffer, and further incubated for another 5 minutes. A final 5minute incubation was carried out in a similar manner. The same procedure was repeated with the inclusion of 10 μL of the test compound (1 nM to 1 μM) and 10 μL ET-1 -(0.3 nM) and the incubation was extended for 30 minutes. This solution was then collected, 10 mL of scintillation cocktail was added, and the amount of [^3H]arachidonic acid was determined in a liquid scintillation counter.

For data set [5], the system named is ETA receptor, human pulmonary artery smooth muscle cells. The data set is described as follows: Blocking ET-1 induced Ca++ transients in human pulmonary artery smooth muscle cells. The data set is classed as cell-based. The conditions noted are these: read-out: IC50 blocking ET-1 induced Ca++ transients via the ETA receptor.
The subject of data set [6] is bET-1 pressor response. The data set is described as follows: Inhibition of bET-1 induced pressor effect in rat. In kind it is in vivo. The settings on record: oral. As to the method:
Inhibition of bETI Induced Pressor Effect in Rat Male Sprague-Dawley (Charles River Laboratories, Kingston, Ontario, Canada) weighing 250 to 350 g are anesthetized (Inactin, 120 mg/kg, I.P.) and acutely instrumented with a carotid artery catheter to monitor arterial blood pressure and with a jugular vein catheters to administer intravenous drugs. Once instrumented, the rats are ganglionicblocked with mecamylamine (1.25 mg/kg, I.V.) to prevent hemodynamic reflexes and then challenged with big endothelin-1 (bET-1) (1.0 nmol/kg, I.V.). The peak arterial pressor response in rats pre-treated with selected compounds of invention compared to vehicletreated rats is used to determine activity expressed as % inhibition. For I.V. activity selected compounds of invention was dose 10 minutes before the bET-1 challenge, and for oral activity selected compounds of invention was administered via oral gavage 8 or 24 hours before the bET-1 challenge.

A further data set can be described thus: Pharmacokinetics in dog. The conditions noted are these: in vivo.
The next data set in a line: Pharmacokinetics in rat. The settings on record: in vivo.
Data set [7] concerns bET-1 pressor response. The data set is described as follows: Inhibition of bET-1 pressor response in dog. The data set is classed as in vivo. The settings on record: Canis lupus familiaris, oral, 24 hours postdose.
Data set [8] has as its system acute hypoxic pulmonary hypertension. The data set is described as follows: Acute hypoxic pulmonary hypertension in the rat. The settings on record: oral. The data set is classed as in vivo.
The mark [9] stands for this setting: [125I]ET-1 binding, human ETA, Ltk- cell membranes, read-out: HETA (IC50).
Where [10] appears, read: Oryctolagus cuniculus, VSMC, read-out: AARA (IC50, μM).

Regarding `O=C(O)C1=C(c2ccc3c(c2)OCO3)c2ccccc2S(=O)(=O)N1c1ccccc1Cl` [Example 18, 4-Benzo [1,3]dioxol-5yl-2-(2-chlorophenyl)-1,1-dioxo-1,2-dihydro-1λ^6-benzo[e][1,2]thiazine-3-carboxylic acid], the IC50 in data set [1] (setting [9]) is 36 nM; in data set [3], more than 25 µM; in [4] (setting [10]), 0.032 µM. Also, in [2], the “VERAA (pA2)” value is on record as 5.8.

On to `CCc1cc(C2=C(C(=O)O)N(c3ccccc3C(F)(F)F)S(=O)(=O)c3ccccc32)cc2c1OCO2` [Example 10, 4-(7-Ethylbenzo[1,3]dioxol-5yl)-1,1 dioxo-2-(2-trifluoromethyl-phenyl) 1,2-dihydro1λ^6-benzo[e]11.2]thiazine-3-carboxylic acid, sodium salt], for which the figures for the 50% inhibitory concentration (IC50) in data set [5], in [1] (read-out: IC50 of ET-1 binding to human ETA receptors) and in data set [3] were 0.2 nM, 0.6 nM and 2.2 µM, respectively. In the data set with bET-1 pressor response [6] (10 mg/kg, 8 hours postdose), this compound displayed an inhibition at 10 mg/kg of 44%. In the data set on bET-1 pressor response [6] (30 mg/kg, 24 hours postdose), this compound registered an inhibition at 30 mg/kg of 48%. In addition, the half-life in “Pharmacokinetics in dog” was 132 min; in the data set “Pharmacokinetics in rat” (read-out: terminal elimination t1/2 (converted)) it was 510 min. The bioavailability in the data set “Pharmacokinetics in dog” (oral) stood at 100%; in the data set “Pharmacokinetics in rat” (oral), 77%. The “pA2, antagonism to ET-1 stimulated vasoconstriction in rabbit femoral artery” value in [2] is 7.7. Further, in data set [2], the “VERAA (pA2)” value worked out at 7.7. This compound showed an inhibition at 15 mg/kg in the data set on bET-1 pressor response [7] of 25%. In addition, the ED50 in [8] (dose dependent, read-out: ED50, inhibition of acute hypoxic pulmonary hypertension) stood at 0.8 mg/kg. Also, the EC50 in data set [8] (plasma concentration, read-out: plasma EC50, inhibition of acute hypoxic pulmonary hypertension) came out at 0.046 µg/mL.

On to `O=C(O)C1=C(c2ccc3c(c2)OCO3)c2ccccc2S(=O)(=O)N1c1cc2c(cc1Cl)OCO2` [Example 25], for which the half-inhibitory concentration (IC50) in data set [1] (setting [9]) is 110 nM; in data set [3] it was more than 25 µM; in data set [4] (setting [10]) it was 0.05 µM. In addition, the “VERAA (pA2)” value in [2] came out at 6.0.

Turning to “4-(7-Methoxybenzo[1,3]-dioxol-5-yl)-1,1-dioxo-2-(2-trifluoromethyl-phenyl) 1,2-dihydro 1λ^6-benzo [e][1,2thiazine-3-carboxylic acid [Example 7]”, the IC50 in data set [1] (setting [9]) amounted to 3 nM; in [4] (ET-1 (0.3 nM) stimulated arachidonic acid release, rabbit renal artery VSMC, read-out: AARA (IC50)) it was 0.0045 µM. Besides, the “VERAA (pA2)” value in data set [2] was determined as 7.0.

Consider `Cc1ccccc1N1C(C(=O)O)=C(c2ccc3c(c2)OCO3)c2ccccc2S1(=O)=O` [Example 12], for which the IC50 was 61 nM in data set [1] (setting [9]), more than 25 µM in data set [3] and 0.1 µM in data set [4] (setting [10]).

With `COc1cc(C2=C(C(=O)[O-])N(c3c(C)cccc3C)S(=O)(=O)c3ccccc32)cc2c1OCO2.[Na+]` [Example 6, 2-(2,6-Dimeth Iphenyl)4-(7-methoxy-benzo-[1,3]dioxol-5vl)-1,1 dioxo 1,2dihydro 1λ^6-benzo[e][1,2]thiazine-3-carboxylic acid monosodium salt], the 50% inhibitory concentration (IC50) in [1] (setting [9]) was 4 nM; in data set [3], more than 2.5 µM. Moreover, in data set [2], the “VERAA (pA2)” value stood at 7.1.

As to `COc1cc(OC)cc(C2=C(C(=O)O)N(c3ccccc3C(F)(F)F)S(=O)(=O)c3ccccc32)c1` [Example 1, 4-(3,5-Dimethoxyphenyl)2-(2-trifluoromethyl-phenyl)-1,1-dioxo-1,2-dihydro-1λ^6-benzo[e][1,2]thiazine-3-carboxylic acid], the 50% inhibitory concentration (IC50) in data set [1] (setting [9]) is 3 nM; in data set [3], more than 2.5 µM. In addition, in data set [2], the “VERAA (pA2)” value came out at 6.6.

As to `COc1cc(OC)cc(C2=C(C(=O)O)N(c3ccccc3Cl)S(=O)(=O)c3ccccc32)c1` [Example 2], the values for the 50% inhibitory concentration (IC50) in data set [1] (setting [9]) and in data set [3] were 2 nM and 7.3 µM, respectively. Besides, the “VERAA (pA2)” value in [2] came out at 6.6.

As to “4-(3,5-Dimethyl-phenyl)-2-(2-trifluoro-methyl-phenyl)-1,1-dioxo-1,2dihydro-1λ^6-benzo[e][1,2]thiazine-3-carboxylic acid [Example 31]”, the figures for the half-inhibitory concentration (IC50) in data set [1] (setting [9]) and in data set [3] were 6 nM and more than 2.5 µM, respectively. In addition, in data set [2], the “VERAA (pA2)” value turned out to be 5.7.

As to `O=C(O)C1=C(c2ccc3c(c2)OCO3)c2ccccc2S(=O)(=O)N1c1ccccc1Br` [Example 17, 4-Benzo[1,3]dioxol-5yl-2-(2bromophenyl)-1,1-dioxo-1,2-dihydro-1λ^6-benzo[e][1,2]thiazine-3-carboxylic acid], the IC50 in data set [1] (setting [9]) was 30 nM; in data set [3], more than 25 µM; in data set [4] (setting [10]), 0.031 µM.

The values above are taken from patent publication US20010036944A1, “Certain benzothiazine dioxide endothelin antagonists and processes for their preparation” (priority 1997, published 2001).
